Measurements as given in US8076487B2, “Pyridone derivative and herbicide” (Kumiai Chemical Industry Co., Ltd., priority 2006, dated 2011).

Tests used:
Format in all cases: in vivo
[1] = system: heartshape false pickerelweed (Monochoria vaginalis (Burm.f.) C.Presl); test: Test Example 1: herbicidal effect by soil application to paddy field; conditions: paddy field soil application; active ingredient 1,000 g per 1 hectare; wettable powder added dropwise to water surface the day after sowing; examined on the 21st day after application
Method in brief: (§1)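 Under greenhouse conditions, seeds sown on puddled paddy soil in 100 cm2 pots under 3 cm of standing water received the test compound; injury was assessed with a standard scoring scheme three weeks (day 21) after treatment.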

[2] = system: early watergrass (Echinochloa oryzicola Vasing); test: as above; conditions: paddy field soil application; active ingredient 1,000 g per 1 hectare; wettable powder added dropwise to water surface the day after sowing; examined on the 21st day after application
Method in brief: as §1

[3] = system: Japanese bulrush (Scirpus juncoides Roxb.); test: as above; conditions: paddy field soil application; active ingredient 1,000 g per 1 hectare; wettable powder added dropwise to water surface the day after sowing; examined on the 21st day after application
Method in brief: as §1

[4] = system: green foxtail (Setaria viridis (L.) P. Beauv.); test: Test Example 3: herbicidal effect by application to upland field (foliage treatment); conditions: 14th day after application; for herbicidal effect (index), Green Foxtail: foliage treatment, plants grown two weeks, 1,000 g active ingredient per hectare; for herbicidal effect, Green Foxtail: foliage treatment, 1,000 g active ingredient per 1 hectare, greenhouse
Method in brief: (§2)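 A single foliar application of a water-diluted wettable powder, at 1,000 g of active ingredient per hectare, was made to plants raised for two weeks from seed in field soil. Herbicidal activity was judged visually after a further 14 days in the greenhouse.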

[5] = system: barnyardgrass (Echinochloa crus-galli (L.) P. Beauv. var. crus-galli); test: as above; conditions: 14th day after application; for herbicidal effect (index), Barnyardgrass: foliage treatment, plants grown two weeks, 1,000 g active ingredient per hectare; for herbicidal effect, Barnyardgrass: foliage treatment, 1,000 g active ingredient per 1 hectare, greenhouse
Method in brief: as §2

[6] = system: slender amaranth (Amaranthus viridis L.); test: as above; conditions: 14th day after application; for herbicidal effect (index), Slender Amaranth: foliage treatment, plants grown two weeks, 1,000 g active ingredient per hectare; for herbicidal effect, Slender Amaranth: foliage treatment, 1,000 g active ingredient per 1 hectare, greenhouse
Method in brief: as §2

[7] = system: velvetleaf (Abutilon theophrasti medicus); test: as above; conditions: 14th day after application; for herbicidal effect (index), Velvetleaf: foliage treatment, plants grown two weeks, 1,000 g active ingredient per hectare; for herbicidal effect, Velvetleaf: foliage treatment, 1,000 g active ingredient per 1 hectare, greenhouse
Method in brief: as §2

[8] = system: green foxtail (Setaria viridis (L.) P. Beauv.); test: Test Example 2: herbicidal effect by soil application to upland field; conditions: soil surface spray, upland field soil, 1,000 g active ingredient per hectare, 21st day after application
Method in brief: (§3)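 Scoring on a standard scale took place 21 days after application, with plants kept in a greenhouse. Active ingredient (1,000 g/ha, as diluted wettable powder, 1,000 L/ha) was sprayed evenly onto soil directly after sowing and covering seeds.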

[9] = system: barnyardgrass (Echinochloa crus-galli (L.) P. Beauv. var. crus-galli); test: as above; conditions: soil surface spray, upland field soil, 1,000 g active ingredient per hectare, 21st day after application
Method in brief: as §3

[10] = system: slender amaranth (Amaranthus viridis L.); test: as above; conditions: soil surface spray, upland field soil, 1,000 g active ingredient per hectare, 21st day after application
Method in brief: as §3

[11] = system: velvetleaf (Abutilon theophrasti medicus); test: as above; conditions: soil surface spray, upland field soil, 1,000 g active ingredient per hectare, 21st day after application
Method in brief: as §3

Row | Compound | herbicidal effect, Monochoria vaginalis (Burm. f.) C. Presl [1] | herbicidal effect, Echinochloa oryzicola Vasing [2] | herbicidal effect, Scirpus juncoides Roxb. [3] | herbicidal effect (index), Green Foxtail [4] | herbicidal effect (index), Barnyardgrass [5] | herbicidal effect (index), Slender Amaranth [6] | herbicidal effect (index), Velvetleaf [7] | herbicidal effect (index), Green Foxtail [8] | herbicidal effect (index), Barnyardgrass [9] | herbicidal effect (index), Slender Amaranth [10] | herbicidal effect (index), Velvetleaf [11] | herbicidal effect, Green Foxtail [4] | herbicidal effect, Barnyardgrass [5] | herbicidal effect, Slender Amaranth [6] | herbicidal effect, Velvetleaf [7]
1 | O=C1CCCC(O)=C1C(=O)c1ccc(C(F)(F)F)n(-c2ccc(F)cc2F)c1=O [I-102] | 5 (90% or more of herbicidal effect and crop phytotoxicity) | 5 (90% or more of herbicidal effect and crop phytotoxicity) | 5 (90% or more of herbicidal effect and crop phytotoxicity) | 5 (90% or more of herbicidal effect and crop phytotoxicity) | 5 (90% or more of herbicidal effect and crop phytotoxicity) | 5 (90% or more of herbicidal effect and crop phytotoxicity) | 5 (90% or more of herbicidal effect and crop phytotoxicity) | 5 (90% or more of herbicidal effect and crop phytotoxicity) | 5 (90% or more of herbicidal effect and crop phytotoxicity) | 5 (90% or more of herbicidal effect and crop phytotoxicity) | 5 (90% or more of herbicidal effect and crop phytotoxicity) | – | – | – | –
2 | O=C(C1=C(O)C2CCC(C2)C1=O)c1ccc(C(F)(F)F)n(C2CCCC2)c1=O (stereo not shown) [III-11] | 5 (90% or more of herbicidal effect and crop phytotoxicity) | 5 (90% or more of herbicidal effect and crop phytotoxicity) | 5 (90% or more of herbicidal effect and crop phytotoxicity) | – | – | – | – | 4 (70 to less than 90% of herbicidal effect and crop phytotoxicity) | 4 (70 to less than 90% of herbicidal effect and crop phytotoxicity) | 5 (90% or more of herbicidal effect and crop phytotoxicity) | 5 (90% or more of herbicidal effect and crop phytotoxicity) | 5 (90% or more of herbicidal effect and crop phytotoxicity) | 5 (90% or more of herbicidal effect and crop phytotoxicity) | 5 (90% or more of herbicidal effect and crop phytotoxicity) | 5 (90% or more of herbicidal effect and crop phytotoxicity)
3 | O=C1CCCC(O)=C1C(=O)c1ccc(C(F)(F)F)n(-c2ccc(OC(F)(F)F)cc2)c1=O [I-79] | 5 (90% or more of herbicidal effect and crop phytotoxicity) | 5 (90% or more of herbicidal effect and crop phytotoxicity) | 5 (90% or more of herbicidal effect and crop phytotoxicity) | 5 (90% or more of herbicidal effect and crop phytotoxicity) | 5 (90% or more of herbicidal effect and crop phytotoxicity) | 5 (90% or more of herbicidal effect and crop phytotoxicity) | 5 (90% or more of herbicidal effect and crop phytotoxicity) | 5 (90% or more of herbicidal effect and crop phytotoxicity) | 5 (90% or more of herbicidal effect and crop phytotoxicity) | 5 (90% or more of herbicidal effect and crop phytotoxicity) | 5 (90% or more of herbicidal effect and crop phytotoxicity) | – | – | – | –
4 | C=CCn1c(C(F)(F)F)ccc(C(=O)C2=C(O)CCCC2=O)c1=O [I-11] | 5 (90% or more of herbicidal effect and crop phytotoxicity) | 5 (90% or more of herbicidal effect and crop phytotoxicity) | 5 (90% or more of herbicidal effect and crop phytotoxicity) | 5 (90% or more of herbicidal effect and crop phytotoxicity) | 5 (90% or more of herbicidal effect and crop phytotoxicity) | 5 (90% or more of herbicidal effect and crop phytotoxicity) | 5 (90% or more of herbicidal effect and crop phytotoxicity) | 4 (70 to less than 90% of herbicidal effect and crop phytotoxicity) | 5 (90% or more of herbicidal effect and crop phytotoxicity) | 5 (90% or more of herbicidal effect and crop phytotoxicity) | 5 (90% or more of herbicidal effect and crop phytotoxicity) | – | – | – | –
5 | O=C1CCCC(O)=C1C(=O)c1ccc(C(F)(F)F)n(-c2ccc(Cl)cc2)c1=O [I-75] | 5 (90% or more of herbicidal effect and crop phytotoxicity) | 5 (90% or more of herbicidal effect and crop phytotoxicity) | 5 (90% or more of herbicidal effect and crop phytotoxicity) | 5 (90% or more of herbicidal effect and crop phytotoxicity) | 5 (90% or more of herbicidal effect and crop phytotoxicity) | 5 (90% or more of herbicidal effect and crop phytotoxicity) | 5 (90% or more of herbicidal effect and crop phytotoxicity) | 5 (90% or more of herbicidal effect and crop phytotoxicity) | 5 (90% or more of herbicidal effect and crop phytotoxicity) | 5 (90% or more of herbicidal effect and crop phytotoxicity) | 5 (90% or more of herbicidal effect and crop phytotoxicity) | – | – | – | –
6 | COc1ccc(-n2c(C(F)(F)F)ccc(C(=O)C3=C(O)CCCC3=O)c2=O)cc1OC [I-100] | 5 (90% or more of herbicidal effect and crop phytotoxicity) | 5 (90% or more of herbicidal effect and crop phytotoxicity) | 5 (90% or more of herbicidal effect and crop phytotoxicity) | 4 (70 to less than 90% of herbicidal effect and crop phytotoxicity) | 5 (90% or more of herbicidal effect and crop phytotoxicity) | 5 (90% or more of herbicidal effect and crop phytotoxicity) | 5 (90% or more of herbicidal effect and crop phytotoxicity) | 4 (70 to less than 90% of herbicidal effect and crop phytotoxicity) | 5 (90% or more of herbicidal effect and crop phytotoxicity) | 5 (90% or more of herbicidal effect and crop phytotoxicity) | 5 (90% or more of herbicidal effect and crop phytotoxicity) | – | – | – | –
7 | N#Cc1ccc(C(=O)C2=C(O)CCCC2=O)c(=O)n1-c1ccccc1 [I-243] | 5 (90% or more of herbicidal effect and crop phytotoxicity) | 5 (90% or more of herbicidal effect and crop phytotoxicity) | 5 (90% or more of herbicidal effect and crop phytotoxicity) | – | – | – | – | 5 (90% or more of herbicidal effect and crop phytotoxicity) | 5 (90% or more of herbicidal effect and crop phytotoxicity) | 5 (90% or more of herbicidal effect and crop phytotoxicity) | 5 (90% or more of herbicidal effect and crop phytotoxicity) | 5 (90% or more of herbicidal effect and crop phytotoxicity) | 5 (90% or more of herbicidal effect and crop phytotoxicity) | 5 (90% or more of herbicidal effect and crop phytotoxicity) | 5 (90% or more of herbicidal effect and crop phytotoxicity)
8 | Cn1ncc(C(=O)c2ccc(C(F)(F)F)n(C)c2=O)c1OC(=O)c1ccccc1 [IV-197] | 5 (90% or more of herbicidal effect and crop phytotoxicity) | 5 (90% or more of herbicidal effect and crop phytotoxicity) | 5 (90% or more of herbicidal effect and crop phytotoxicity) | – | – | – | – | 4 (70 to less than 90% of herbicidal effect and crop phytotoxicity) | 4 (70 to less than 90% of herbicidal effect and crop phytotoxicity) | 5 (90% or more of herbicidal effect and crop phytotoxicity) | 5 (90% or more of herbicidal effect and crop phytotoxicity) | 4 (70 to less than 90% of herbicidal effect and crop phytotoxicity) | 4 (70 to less than 90% of herbicidal effect and crop phytotoxicity) | 5 (90% or more of herbicidal effect and crop phytotoxicity) | 5 (90% or more of herbicidal effect and crop phytotoxicity)
